These results are taken from ChEMBL document CHEMBL5512683, “Discovery of Novel ERα and Aromatase Dual-Targeting PROTAC Degraders to Overcome Endocrine-Resistant Breast Cancer” (J Med Chem, 2024).

Structures are written as SMILES. Active and inactive are the calls of the source. The calls are words filed in the database; no cut-off is given here.

In general, IC50 refers to the concentration at which inhibition is half-maximal. What is called Ki is a measure of affinity in units of concentration, obtained from inhibition or displacement.

The test system of data set [1] is MCF7. Nature of the data set: Reduction in ERS1 mRNA expression in resistant human MCF7 cells at 5 uM by real-time quantitative polymerase chain reaction (RT-qPCR) analysis. The format is functional, cell-based.
Data set [2] in a line: Anti-proliferative activity against human MCF-10A cells incubated for 96 hrs by CCK8 assay. The format is toxicity, cell-based. Background: Tetrazolium dyes change colour on reduction, which living cells bring about.
In data set [3] the test system is MCF7. Nature of the data set: Antiproliferative activity against human resistant MCF7 cells harboring EGFR assessed as cell viability incubated for 96 hrs by CCK8 assay. The note with it: MCF7, 96 h.
Data set [4] deals with MCF7. The data set is described as follows: Anti-proliferative activity against ERalpha positive human MCF7 cells incubated for 96 hrs by CCK8 assay. Particulars: MCF7, 96 h.
For data set [5], the system named is MCF7. Nature of the data set: Reduction in MYC mRNA expression in resistant human MCF7 cells harboring EGFR at 5 uM by real-time quantitative polymerase chain reaction (RT-qPCR) analysis. The format is functional, cell-based.
Data set [6] concerns MCF7. The data set is described as follows: Reduction in MYC mRNA expression in resistant human MCF7 cells harboring ERalpha Y537S mutant at 5 uM by real-time quantitative polymerase chain reaction (RT-qPCR) analysis. The format is functional, cell-based. (In general: Real-time PCR tracks product formation cycle by cycle.)
The subject of data set [7] is MCF7. The data set is described as follows: Reduction in ERS1 mRNA expression in resistant human MCF7 cells harboring ERalpha D538G mutant at 5 uM by real-time quantitative polymerase chain reaction (RT-qPCR) analysis. The format is functional, cell-based.
Data set [8] addresses T1, von Hippel-Lindau disease tumor suppressor/Aromatase (Homo sapiens, UniProt P11511+P40337). Nature of the data set: PROTAC activity at human ARO/VHL E3 ligase in human MCF-7 cells assessed as degradation of ARO incubated for 24 hrs by Western blot analysis. The format is cell-based. The note with it: mcf7, 24 h. (In general: In western blotting, separated proteins are transferred to a membrane and probed.)

The subject of data set [9] is MCF7. Nature of the data set: Reduction in ERS1 mRNA expression in resistant human MCF7 cells harboring ERalpha Y537S mutant at 5 uM by real-time quantitative polymerase chain reaction (RT-qPCR) analysis. The format is functional, cell-based.
Data set [10] relates to MCF7. Nature of the data set: Antiproliferative activity against human resistant MCF7 cells harboring ERalpha Y537S mutant at LBD assessed as cell viability incubated for 96 hrs by CCK8 assay. The note with it: MCF7, 96 h.
In data set [11] the target is T1, von Hippel-Lindau disease tumor suppressor/Aromatase. The data set is described as follows: PROTAC activity at human ARO/VHL E3 ligase in resistant human MCF-7 cells harboring EGFR assessed as degradation of ARO at 0.5 to 10 uM incubated for 24 hrs by Western blot analysis. The format is cell-based. Particulars: mcf7, 24 h, dose 0.5-10 µM.
Data set [12] relates to MCF7. The data set is described as follows: Reduction in ERS1 mRNA expression in resistant human MCF7 cells harboring EGFR at 5 uM by real-time quantitative polymerase chain reaction (RT-qPCR) analysis. The format is functional, cell-based.
Data set [13] concerns MCF7. Nature of the data set: Reduction in MYC mRNA expression in resistant human MCF7 cells harboring ERalpha D538G mutant at 5 uM by real-time quantitative polymerase chain reaction (RT-qPCR) analysis. The format is functional, cell-based.
In data set [14] the target is T1, von Hippel-Lindau disease tumor suppressor/Aromatase. Nature of the data set: PROTAC activity at human ARO/VHL E3 ligase in human MCF-7 cells assessed as degradation of ARO at 1 uM incubated for 24 hrs by Western blot analysis. The note with it: mcf7, 24 h. The format is cell-based.
For data set [15], the system named is MCF7. The data set is described as follows: Reduction in MYC mRNA expression in resistant human MCF7 cells at 5 uM by real-time quantitative polymerase chain reaction (RT-qPCR) analysis. The format is functional, cell-based.
The target in another data set is T2, Aromatase (Homo sapiens, UniProt P11511).
T2 sequence (P11511 whole entry): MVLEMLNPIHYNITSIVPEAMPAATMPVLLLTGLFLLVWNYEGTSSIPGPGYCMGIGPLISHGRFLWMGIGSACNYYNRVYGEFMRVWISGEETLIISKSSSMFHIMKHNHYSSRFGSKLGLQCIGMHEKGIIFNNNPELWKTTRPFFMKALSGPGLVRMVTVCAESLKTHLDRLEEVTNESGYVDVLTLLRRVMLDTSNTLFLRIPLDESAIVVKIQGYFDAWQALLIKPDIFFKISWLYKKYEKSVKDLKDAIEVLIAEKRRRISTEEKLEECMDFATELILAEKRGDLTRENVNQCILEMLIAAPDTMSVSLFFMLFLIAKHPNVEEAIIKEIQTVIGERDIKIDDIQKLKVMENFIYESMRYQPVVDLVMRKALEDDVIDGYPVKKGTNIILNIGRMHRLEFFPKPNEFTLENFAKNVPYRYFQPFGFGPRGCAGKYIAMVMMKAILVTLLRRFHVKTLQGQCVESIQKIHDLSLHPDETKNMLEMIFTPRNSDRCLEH
Nature of the data set: Inhibition of recombinant human aromatase using ARO substrate/NADP+ mixture by fluorescence assay.

In data set [16] the test system is MCF7. The data set is described as follows: Antiproliferative activity against human resistant MCF7 cells harboring ERalpha D538G mutant at LBD assessed as cell viability incubated for 96 hrs by CCK8 assay. The note with it: MCF7, 96 h.
Data set [17] has as its system MCF7. Nature of the data set: Induction of degradation of MYC protein in human MCF7 cells harboring ERalpha D538G mutant at 0.5 to 5 uM by Western blot analysis. Particulars: dose 0.5-5 µM. The format is functional, cell-based.
Data set [18] concerns MCF7. Nature of the data set: Induction of cell cycle arrest in human MCF7 cells assessed as accumulation of cells at G2/M phase at 5 uM incubated for 48 hrs by flow cytometry (reference value: 54.10%). The format is functional.
In data set [19] the target is T1, von Hippel-Lindau disease tumor suppressor/Aromatase. Nature of the data set: PROTAC activity at human ARO/VHL E3 ligase in human MCF-7 cells assessed as degradation of ARO at 1 uM incubated for 24 hrs in presence of MG132 by Western blot analysis. The format is cell-based. The note with it: mcf7, 24 h.
Data set [20] deals with MCF7. Nature of the data set: In vivo PROTAC activity in aromatase/VHL E3 ligase in human MCF7 cell xenografted in Balb/c mouse model assessed as reduction in ARO level in tumor at 5 mg/kg, ip every other day measured upto 20 days. The format is functional, organism-based. Particulars: time <= 20.0 day.
A short description of data set [21]: Toxicity in Balb/c mouse xenografted with human MCF7 cells assessed as cellular morphology in kidney at 5 mg/kg, ip every other day measured upto 20 days. The format is organism-based. Particulars: in vivo, 480 h, time < 20 day.
Data set [22] concerns MCF7. The data set is described as follows: Induction of degradation of MYC protein in human MCF7 cells harboring ERalpha Y537S mutant at 0.5 to 5 uM by Western blot analysis. The format is functional, cell-based. The note with it: dose 0.5-5 µM.
Data set [23] is described as follows: Toxicity in Balb/c mouse xenografted with human MCF7 cells assessed as cellular morphology in liver at 5 mg/kg, ip every other day measured upto 20 days. The format is organism-based. The note with it: in vivo, 480 h, time < 20 day.
Data set [24] has as its system MCF7. The data set is described as follows: Induction of degradation of MYC protein in human MCF7 cells at 0.5 to 5 uM by Western blot analysis. The format is functional, cell-based. Particulars: dose 0.5-5 µM.
For a further data set, the target named is Estrogen receptor beta (Homo sapiens, UniProt Q92731). The data set is described as follows: Binding affinity to human ERbeta assessed as inhibition constant incubated under dark condition for 2 hrs by competitive fluorometric binding assay.
Data set [25] concerns MCF7. The data set is described as follows: Antitumor activity against human MCF7 cells xenografted in Balb/c mouse model assessed as tumor growth inhibition at 5 mg/kg, ip every other day measured upto 20 days. The note with it: time <= 20.0 day. The format is functional, organism-based.
Data set [26] is described as follows: Toxicity in Balb/c mouse xenografted with human MCF7 cells assessed as cellular morphology in spleen at 5 mg/kg, ip every other day measured upto 20 days. Particulars: in vivo, 480 h, time < 20 day. The format is organism-based.
Data set [27] can be described thus: Toxicity in Balb/c mouse xenografted with human MCF7 cells assessed as body weight loss at 5 mg/kg, ip every other day measured upto 20 days. Particulars: in vivo, 480 h, time < 20 day. The format is organism-based.
A short description of data set [28]: Toxicity in Balb/c mouse xenografted with human MCF7 cells assessed as cellular morphology in heart at 5 mg/kg, ip every other day measured upto 20 days. The format is organism-based. Particulars: in vivo, 480 h, time < 20 day.
The test system of data set [29] is MCF7. The data set is described as follows: In vivo antitumor activity against human MCF7 cells xenografted in Balb/c mouse model assessed as reduction in number of Ki67 positive cells in tumor at 5 mg/kg, ip every other day measured upto 20 days. The format is functional, organism-based. Particulars: time <= 20.0 day.
Data set [30] has as its system MCF7. Nature of the data set: In vivo PROTAC activity in ERalpha/VHL E3 ligase in human MCF7 cell xenografted in Balb/c mouse model assessed as reduction in ERalpha level in tumor at 5 mg/kg, ip every other day measured upto 20 days. Particulars: time <= 20.0 day. The format is functional, organism-based.
For data set [31], the system named is MCF7. Nature of the data set: Induction of degradation of MYC protein in human MCF7 cells harboring EGFR at 0.5 to 5 uM by Western blot analysis. The note with it: dose 0.5-5 µM. The format is functional, cell-based.

T1 sequence (P40337 whole entry, one chain of several): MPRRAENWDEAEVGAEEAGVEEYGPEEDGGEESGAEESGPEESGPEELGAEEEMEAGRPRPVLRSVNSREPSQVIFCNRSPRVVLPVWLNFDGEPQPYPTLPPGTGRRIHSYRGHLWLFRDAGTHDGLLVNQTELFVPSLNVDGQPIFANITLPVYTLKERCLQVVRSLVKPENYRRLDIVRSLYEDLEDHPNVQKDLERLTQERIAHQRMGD
Chain of Estrogen receptor beta (Q92731 whole entry): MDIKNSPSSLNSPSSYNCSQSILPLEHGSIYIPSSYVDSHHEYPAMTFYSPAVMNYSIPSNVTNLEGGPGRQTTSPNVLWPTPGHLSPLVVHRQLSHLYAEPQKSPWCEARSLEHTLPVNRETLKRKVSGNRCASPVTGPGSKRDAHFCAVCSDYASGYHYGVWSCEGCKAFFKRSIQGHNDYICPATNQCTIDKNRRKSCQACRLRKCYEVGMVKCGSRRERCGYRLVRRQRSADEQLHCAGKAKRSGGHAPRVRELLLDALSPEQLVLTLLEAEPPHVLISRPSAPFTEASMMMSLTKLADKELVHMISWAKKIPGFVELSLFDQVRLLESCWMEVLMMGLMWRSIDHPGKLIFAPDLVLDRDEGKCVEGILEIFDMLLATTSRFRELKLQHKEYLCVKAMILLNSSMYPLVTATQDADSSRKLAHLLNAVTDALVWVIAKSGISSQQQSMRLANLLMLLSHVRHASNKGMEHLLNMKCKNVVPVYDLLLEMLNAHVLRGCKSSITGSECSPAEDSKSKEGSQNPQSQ

Turning to `Cc1ncsc1-c1ccc([C@H](C)NC(=O)[C@@H]2C[C@@H](O)CN2C(=O)[C@@H](NC(=O)COCCOCCOc2ccc(N(CC(F)(F)F)S(=O)(=O)C3CC4OC3C(c3ccc(-n5ccnc5)cc3)=C4c3ccc(O)cc3)cc2)C(C)(C)C)cc1` (some centres not stated), the outcome with MCF7 [1], in the data set with MCF7 [7], in the data set on MCF7 [9], in the data set on MCF7 [12] and in the data set with MCF7 [15] was inactive. In data set [2], this compound had an IC50 at 96 h greater than 100 µM. The concentration for half-maximal inhibition (IC50) with MCF7 [3] was 4.4 µM; in the data set on MCF7 [4], 0.35 µM; in the data set on MCF7 [10], 2.1 µM; on Aromatase, 0.32 µM; with MCF7 [16] it was 10 µM. The result with MCF7 [5], in the data set on MCF7 [6] and in the data set with MCF7 [13] was Active. For the same compound, the Activity entry was “Dose-Dependent Effect” in [8], “Active” in [11] and “Active” in data set [14].

Regarding `Cc1ncsc1-c1ccc([C@H](C)NC(=O)[C@@H]2C[C@@H](O)CN2C(=O)[C@@H](NC(=O)CCCCCOc2ccc(N(CC(F)(F)F)S(=O)(=O)C3CC4OC3C(c3ccc(-n5ccnc5)cc3)=C4c3ccc(O)cc3)cc2)C(C)(C)C)cc1` (some centres not stated), the result with MCF7 [17], in the data set on MCF7 [22] and in the data set on MCF7 [31] was inactive. In addition, the Activity in the data set on MCF7 [18] is reported as 66.31%; in data set [19], “Not Active”; in data set [21], “Non-Toxic”; in data set [23] it was “Non-Toxic”; in data set [8], “Dose-Dependent Effect”; in [26], “Non-Toxic”. The Activity result is on record as “Non-Toxic” in data set [27], “Active” in [14] and “Non-Toxic” in data set [28]. For the same compound, the outcome in the data set on MCF7 [20], in the data set with MCF7 [24], in the data set with MCF7 [5], in the data set with MCF7 [6], with MCF7 [7] and with MCF7 [9] was Active. Further, the outcome in the data set on MCF7 [25], in the data set with MCF7 [12], with MCF7 [13], in the data set with MCF7 [29] and with MCF7 [30] was Active. In data set [2], this compound gave an IC50 at 96 h greater than 100 µM. Further, the IC50 in the data set on MCF7 [3] was 0.075 µM; in the data set on MCF7 [4], 0.54 µM; in the data set on MCF7 [10] it was 2.3 µM; at Aromatase it was 4.6 µM; with MCF7 [16], 0.31 µM. Moreover, the Ki on Estrogen receptor beta was greater than 79 µM.
